In brackets after ≈: the same amount, converted by molar mass.
Assays:
[1] = biological target: AgrA-P3 complex (Staphylococcus aureus, UniProt P0A0I7); assay: Electrophoretic mobility shift assay, AgrA with P3 promoter DNA; conditions: 1 nM P3 DNA, 2 μM AgrA
[2] = tested on: MRSA USA300; format: in vivo, mice; conditions: for improvement of wound healing compared to untreated control: 20 mg/kg on the wound once a day for seven days, wound area day 8; for bacterial burden of the wound vs untreated control: 20 mg/kg once a day for seven days; for bacterial burden of the wound vs untreated control / tissue burden of the wound, average log CFUs ± standard deviation: day 8; for tissue burden of the wound, average log CFUs ± standard deviation: topical twice a day for seven days, cephalothin 30 mg/kg, F19 20 mg/kg, vancomycin 30 mg/kg
[3] = Survival of insect larvae given compound in the absence of bacteria; format: in vivo, Galleria Mellonella; conditions: after 84 h
[4] = tested on: Bacillus anthracis Ames strain; format: cell-based
[5] = tested on: MRSE Q-15; format: cell-based, Staphylococcus epidermidis
[6] = tested on: MRSA USA300; assay: Murine MRSA bacteremia/sepsis model
[7] = tested on: MRSA USA300; assay: microbe, parasite or virus in culture; format: cell-based, Staphylococcus aureus; conditions: for MIC: Staphylococcus aureus, read-out: minimum inhibitory concentration (MIC), With F19 (1 μg/mL)
[8] = tested on: Streptococcus pyogenes; format: cell-based

Sequence of AgrA-P3 complex (P0A0I7 whole entry, one chain of several): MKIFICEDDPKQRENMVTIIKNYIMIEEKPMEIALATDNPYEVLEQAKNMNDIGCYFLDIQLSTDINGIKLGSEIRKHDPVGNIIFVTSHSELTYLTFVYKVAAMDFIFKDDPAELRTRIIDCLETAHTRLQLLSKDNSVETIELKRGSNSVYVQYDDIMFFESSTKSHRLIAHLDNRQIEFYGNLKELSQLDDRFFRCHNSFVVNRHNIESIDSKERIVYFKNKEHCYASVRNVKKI

CCCCCCc1cc(C(=O)COc2cccc(F)c2)c(O)cc1O [4f-1]
inhibition of formation of the AgrA-promoter P3 complex (EMSA) ([1]; listed as F1): inhibit the formation of the AgrA-promoter P3 complex
improvement of wound healing compared to untreated control [2]: 46.6%
bacterial burden of the wound vs untreated control [2]: no significant difference in the bacterial burden

CCCCCCc1cc(C(=O)COc2ccc(F)cc2F)c(O)cc1O [4f-12]
inhibition of formation of the AgrA-promoter P3 complex (EMSA) [1]: inhibit binding of AgrA to its cognate DNA
inhibition of formation of the AgrA-promoter P3 complex (EMSA) ([1]; listed as F12): inhibit the formation of the AgrA-promoter P3 complex
survival of larvae in the absence of bacteria [3]: 80%
improvement of wound healing compared to untreated control [2]: 79.4%
bacterial burden of the wound vs untreated control [2]: no significant difference in the bacterial burden

C[C@H]1[C@H](NC(=O)/C(=N\OC(C)(C)C(=O)O)c2csc(N)n2)C(=O)N1S(=O)(=O)O [Aztreonam]
minimum inhibitory concentration (MIC), antibiotic Alone [4]: 256
minimum inhibitory concentration (MIC), With F19 (10 μg/mL) [4]: <0.1

CC(C)(O/N=C(\C(=O)N[C@@H]1C(=O)N2C(C(=O)[O-])=C(C[n+]3ccccc3)CS[C@H]12)c1csc(N)n1)C(=O)O [Cefazidime]
minimum inhibitory concentration (MIC), antibiotic Alone [4]: 32
minimum inhibitory concentration (MIC), With F19 (10 μg/mL) [4]: <0.1

CC(=O)OCC1=C(C(=O)O)N2C(=O)[C@@H](NC(=O)Cc3cccs3)[C@H]2SC1 [Cephalothin, cephalothin]
minimum inhibitory concentration (MIC), antibiotic Alone [5]: 64
minimum inhibitory concentration (MIC), With F19 (1 μg/mL) [5]: 3
bacterial burden in blood compared to F19-treated animals ([6]; 30 mg/kg IP twice daily): approximately the same bacterial burden levels
tissue burden of the wound, average log CFUs ± standard deviation [2]: 7.54±0.4 log CFU
minimum inhibitory concentration (MIC), antibiotic Alone ([7]; MRSA USA300): 58 µg/mL (≈ 146 µM)
MIC [7]: 2 µg/mL (≈ 5.04 µM)

CCOc1ccc2ccccc2c1C(=O)N[C@@H]1C(=O)N2[C@@H]1SC(C)(C)[C@@H]2C(=O)O [Nafcillin]
minimum inhibitory concentration (MIC), antibiotic Alone ([8]; alone): 25
minimum inhibitory concentration (MIC), With F19 (1 μg/mL) ([8]; with F19 1 μg/mL): 10
minimum inhibitory concentration (MIC), antibiotic Alone ([7]; MRSA USA300): 60 µg/mL (≈ 145 µM)
MIC [7]: 1 µg/mL (≈ 2.41 µM)

CN[C@H](CC(C)C)C(=O)N[C@H]1C(=O)N[C@@H](CC(N)=O)C(=O)N[C@H]2C(=O)N[C@H]3C(=O)N[C@H](C(=O)N[C@H](C(=O)O)c4cc(O)cc(O)c4-c4cc3ccc4O)[C@H](O)c3ccc(c(Cl)c3)Oc3cc2cc(c3O[C@@H]2O[C@H](CO)[C@@H](O)[C@H](O)[C@H]2O[C@H]2C[C@](C)(N)[C@H](O)[C@H](C)O2)Oc2ccc(cc2Cl)[C@H]1O [Vancomycin, vancomycin]
bacterial load in blood compared to the F19-cephalothin treatment ([6]; 30 mg/kg IP twice daily): almost two orders of magnitude lower
surviving mice (of ten per group) ([6]; 30 mg/kg IP twice daily for 7 days, lethal dose 1.6×10^10 CFUs): all survived
mean bacterial load in blood compared to vehicle-treated animals ([6]; 30 mg/kg IP twice daily, day 6): four orders of magnitude lower
tissue burden of the wound, average log CFUs ± standard deviation [2]: 6.96±0.3 log CFU

Penicillin
minimum inhibitory concentration (MIC), antibiotic Alone [5]: 174
minimum inhibitory concentration (MIC), With F19 (1 μg/mL) [5]: 34
minimum inhibitory concentration (MIC), antibiotic Alone ([7]; MRSA USA300): 135 µg/mL
minimum inhibitory concentration (MIC), With F19 (1 μg/mL) ([7]; MRSA USA300, with F19 1 μg/mL): 18 µg/mL
